The assay is filed under the species Homo sapiens. Nature of the assay: Compound was tested for inhibitory activity against collagen induced platelet aggregation. The assay is classed as functional.

Compound `O=C(O)COc1cccc2c1C[C@H]1C[C@@H](O)[C@H](C#C[C@@H](O)C3CCCCC3)[C@H]1C2` yielded an IC50 of 2.9 nM.

In the case of `O=C(O)COc1cccc2c1C[C@H]1C[C@@H](O)[C@H](C#C[C@@H](O)C3CCCCC3)[C@@H]1C2`, it took 52 nM to reach half-maximal inhibition (IC50).

(Values after ChEMBL document CHEMBL1125947, “Triply-convergent syntheses of two homochiral arene-fused prostacyclin analogs related to U68,215” (Bioorg Med Chem Lett, 1991).)
